Data from paper PMC6021681, “Characterization of the Anti-Hepatitis C Virus Activity of New Nonpeptidic Small-Molecule Cyclophilin Inhibitors with the Potential for Broad Anti-Flaviviridae Activity” (Antimicrobial Agents and Chemotherapy, 2018).
Where two headings read alike, the source gives them in different places.

Legend:
ZIKV strain MR766 = test: ZIKV replication in Huh7 cells, RT-qPCR; type: cell-based, Zika virus
genotype 3a HCV-SGR = test: genotype 3a HCV-SGR, stable Huh7.5 cells, luciferase; type: cell-based, hepatitis C virus; conditions: 48 h, read-out: Mean EC50 ± SD, HCV-SGR Genotype 3a
[1] = tested on: genotype 1b HCV-SGR(L31V/Y93H); test: microbe, parasite or virus in culture; type: cell-based, hepatitis C virus
genotype 5a HCV-SGR = test: genotype 5a HCV-SGR, stable Huh7.5 cells, luciferase; type: cell-based, hepatitis C virus; conditions: 48 h, read-out: Mean EC50 ± SD, HCV-SGR Genotype 5a
CypA-NS5A interaction = CypA-NS5A interaction (Homo sapiens, UniProt P62937); type: binding
genotype 2a HCV-SGR = test: genotype 2a HCV-SGR, transient, luciferase; conditions: read-out: Mean EC50 ± SD, HCV-SGR Genotype 2a
CypA = target: T1, CypA (Homo sapiens, UniProt P62937); test: TR-FRET competitive binding assay against labeled CsA
T1 construct: purchased Selcia, Ongar, UK

[2] = tested on: Infectious J6/JFH1 HCV genotype 2a/2a; test: infectious HCV model, luciferase; type: cell-based, hepatitis C virus; conditions: read-out: Mean EC50 ± SD, Infectious J6/JFH1 HCV genotype 2a/2a
[3] = tested on: chimeric genotype 2a/4a HCV-SGR; test: chimeric genotype 2a/4a HCV-SGR, transient, luciferase; conditions: read-out: Mean EC50 ± SD, HCV-SGR Genotype 2a/4a
genotype 1b HCV-SGR = test: microbe, parasite or virus in culture; type: cell-based, hepatitis C virus
Experimental: (§1) Candidate resistance-associated substitutions (RASs) were introduced into a wild-type genotype 1b HCV-SGR containing the luciferase reporter gene by means of site-directed mutagenesis (QuikChange II XL site-directed mutagenesis kit; Agilent Technologies, Santa Clara, CA, USA). Ninety-six hours after RNA transfection, the susceptibility of the RAS-containing HCV-SGR to compound 31 was determined by measurement of luciferase activity and comparison to wild-type HCV-SGR susceptibility. The replication capacity of the RAS-containing HCV-SGR was assessed by comparing luciferase activities at 4 h and 96 h posttransfection and expressed as a percentage of the wild-type replication capacity.

[4] = tested on: genotype 1b HCV-SGR D320E; test: microbe, parasite or virus in culture; type: cell-based, hepatitis C virus; conditions: for EC50: 96 h, read-out: Mean EC50 ± SD, D320E
Experimental: as §1, with “Ninety-six hours after RNA transfection, the susceptibility of the RAS-containing HCV-SGR to compound 31 was determined by measurement of luciferase activity and comparison to wild-type HCV-SGR susceptibility.” left out

[5] = tested on: genotype 1b HCV-SGR Y321H; test: microbe, parasite or virus in culture; type: cell-based, hepatitis C virus; conditions: for EC50: 96 h, read-out: Mean EC50 ± SD, Y321H
Experimental: as §1, with “Ninety-six hours after RNA transfection, the susceptibility of the RAS-containing HCV-SGR to compound 31 was determined by measurement of luciferase activity and comparison to wild-type HCV-SGR susceptibility.” left out

[6] = tested on: genotype 1b HCV-SGR R304W; test: microbe, parasite or virus in culture; type: cell-based, hepatitis C virus; conditions: for EC50: 96 h, read-out: Mean EC50 ± SD, R304W
Experimental: as §1, with “Ninety-six hours after RNA transfection, the susceptibility of the RAS-containing HCV-SGR to compound 31 was determined by measurement of luciferase activity and comparison to wild-type HCV-SGR susceptibility.” left out

[7] = tested on: genotype 1b HCV-SGR K308I; test: microbe, parasite or virus in culture; type: cell-based, hepatitis C virus; conditions: for EC50: 96 h, read-out: Mean EC50 ± SD, K308I
Experimental: as §1, with “Ninety-six hours after RNA transfection, the susceptibility of the RAS-containing HCV-SGR to compound 31 was determined by measurement of luciferase activity and comparison to wild-type HCV-SGR susceptibility.” left out

[8] = tested on: genotype 1b HCV-SGR E442G; test: microbe, parasite or virus in culture; type: cell-based, hepatitis C virus; conditions: for EC50: 96 h, read-out: Mean EC50 ± SD, E442G
Experimental: as §1, with “Ninety-six hours after RNA transfection, the susceptibility of the RAS-containing HCV-SGR to compound 31 was determined by measurement of luciferase activity and comparison to wild-type HCV-SGR susceptibility.” left out

[9] = tested on: genotype 1b HCV-SGR I133V; test: microbe, parasite or virus in culture; type: cell-based, hepatitis C virus; conditions: for EC50: 96 h, read-out: Mean EC50 ± SD, I133V
Experimental: as §1, with “Ninety-six hours after RNA transfection, the susceptibility of the RAS-containing HCV-SGR to compound 31 was determined by measurement of luciferase activity and comparison to wild-type HCV-SGR susceptibility.” left out

[10] = tested on: genotype 1b HCV-SGR L303P; test: microbe, parasite or virus in culture; type: cell-based, hepatitis C virus; conditions: for EC50: 96 h, read-out: Mean EC50 ± SD, L303P
Experimental: as §1, with “Ninety-six hours after RNA transfection, the susceptibility of the RAS-containing HCV-SGR to compound 31 was determined by measurement of luciferase activity and comparison to wild-type HCV-SGR susceptibility.” left out

genotype 1a HCV-SGR = test: microbe, parasite or virus in culture; type: cell-based, hepatitis C virus
WNV = WNV replication; type: cell-based, West Nile virus; conditions: 50 μM the highest concentration tested, data not shown
[11] = tested on: full-length infectious HCV genotype 3a (DBN-3acc); test: full-length DBN-3acc replication, RT-qPCR; type: cell-based, hepatitis C virus; conditions: at 10 μM, Huh7.5 cells, 120 hours
Description: Madison, Wisconsin, USA).
(Promega) and quantified by RT‐qPCR.
(1 mi n ). […] The percent inhibition of […]

[12] = tested on: HCV genotype 1b bicistronic replicon (I389-Neo/NS3-3'/5.1); test: genotype 1b HCV-SGR replicon model, stable Huh7.5 cells, RT-qPCR; type: cell-based, hepatitis C virus; conditions: 3 days
Experimental: of at least two independent measurements.
The cells were treated for
without G418. […] HCV‐SGR RNA
results were normalized to GAPDH.
replicates in cell culture.
antiviral activities. Nat Commun 7:12777.

YFV strain Dakar HD 1279 = type: cell-based, yellow fever virus; conditions: Huh7 cells, RT-qPCR at 48 h postinfection; read-out: EC50, YFV replication
CypA PPIase activity = CypA PPIase activity (Homo sapiens, UniProt P62937); test: CypA PPIase enzyme assay, chymotrypsin coupled; conditions: read-out: PPIase inhibition IC50, 20°C
Huh7 cells = conditions: read-out: 50% cytotoxic concentration (CC50); flavivirus experiments
[13] = tested on: DENV-4 strain Dominica 814669; test: DENV replication in Huh7 cells, RT-qPCR; type: cell-based, dengue virus; conditions: RT-qPCR at 48 h postinfection
Huh7.5 cells = test: cytotoxicity MTT assay; type: cell-based, Human; conditions: at its effective concentration, 3 days
[14] = target: CypA-NS5A-D320E interaction (Homo sapiens, UniProt P62937); type: binding; conditions: NS5A-D320E-Rluc, CypA-6His on Ni-NTA beads
JEV = JEV replication; type: cell-based, Japanese encephalitis virus; conditions: data not shown

CypA PPIase activity, sequence (P62937 whole entry): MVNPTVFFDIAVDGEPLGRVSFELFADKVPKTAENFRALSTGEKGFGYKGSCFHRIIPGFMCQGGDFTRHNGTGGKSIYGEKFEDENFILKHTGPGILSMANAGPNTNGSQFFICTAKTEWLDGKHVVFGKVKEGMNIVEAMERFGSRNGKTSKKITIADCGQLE
CypA-NS5A interaction, sequence (P62937 whole entry): as above
T1 sequence (P62937 whole entry): as above
CypA-NS5A-D320E interaction, sequence (P62937 whole entry, stated change not applied): as the sequence (P62937 whole entry) above

## C/C=C/C[C@@H](C)[C@@H](O)[C@H]1C(=O)N[C@@H](CC)C(=O)N(C)[C@H](C)C(=O)N(CC)[C@@H](C(C)C)C(=O)N[C@@H](C(C)C)C(=O)N(C)[C@@H](CC(C)C)C(=O)N[C@@H](C)C(=O)N[C@H](C)C(=O)N(C)[C@@H](CC(C)C)C(=O)N(C)[C@@H](CC(C)C)C(=O)N(C)[C@@H](C(C)C)C(=O)N1C [ALV, Alisporivir, reference compound]
ZIKV strain MR766; data not shown
  inhibition of ZIKV replication: did not inhibit
Genotype 3a HCV-SGR; Hepatitis C virus
  EC50: 20 ± 10 nM
[1]; Hepatitis C virus, 84 h, read-out: Mean EC50 ± SD, L31V/Y93H
  EC50: 10 ± 1 nM
Genotype 5a HCV-SGR; Hepatitis C virus
  EC50: 10 ± 10 nM
CypA-NS5A interaction
  disruption of the CypA-NS5A interaction: disrupted
Genotype 2a HCV-SGR; Hepatitis C virus, GETYPE2A, Huh7.5, 48 h
  EC50: 20 ± 10 nM
CypA; purified CypA
  Kd: < 5 nM
[2]; Hepatitis C virus, Huh7.5, 72 h
  EC50: 30 ± 2 nM
[3]; Hepatitis C virus, GETYPE2A, Huh7.5, 72 h
  EC50: 10 ± 2 nM
Genotype 1b HCV-SGR; Hepatitis C virus, transient, Huh7.5 cells, 96 h posttransfection, luciferase, read-out: Mean EC50 ± SD, HCV-SGR Genotype 1b
  EC50: 30 ± 10 nM
Genotype 1b HCV-SGR; Hepatitis C virus, wild-type genotype 1b HCV-SGR, read-out: Mean EC50 ± SD, WT
  EC50: 30 ± 10 nM
[4]; Hepatitis C virus
  EC50: 120 ± 50 nM
[5]; Hepatitis C virus
  EC50: 60 ± 20 nM
[6]; Hepatitis C virus
  EC50: 30 ± 4 nM
[7]; Hepatitis C virus
  EC50: 40 ± 4 nM
[8]; Hepatitis C virus
  EC50: 30 ± 4 nM
[9]; Hepatitis C virus
  EC50: 20 ± 1 nM
[10]; Hepatitis C virus
  EC50: 40 ± 10 nM
Genotype 1a HCV-SGR; Hepatitis C virus, stable Huh7.5 cells, 48 h, luciferase, read-out: Mean EC50 ± SD, HCV-SGR Genotype 1a
  EC50: 40 ± 30 nM

## CSc1ccccc1C1CCCN1C(=O)C(NC(=O)NCc1ccc(N)cc1)c1ccccc1 (centres unmarked) [Compound C31]
WNV
  EC50: > 50000 nM
ZIKV strain MR766; Huh7 cells, RT-qPCR at 48 h postinfection
  EC50: 48000 ± 5600 nM
Genotype 3a HCV-SGR
  EC50: 7760 ± 1570 nM
Genotype 5a HCV-SGR
  EC50: 1200 ± 830 nM
[11]
  maximal HCV RNA reduction, DBN-3acc RNA replication: 244 fold
[12]
  EC50: 400 ± 10 nM
YFV strain Dakar HD 1279
  EC50: 27200 ± 4700 nM
CypA PPIase activity
  IC50: 100 ± 10 nM
Huh7 cells
  CC50: ≥ 100000 nM
[13]
  EC50: 7300 ± 3500 nM
Huh7.5 cells
  cell viability: did not affect
CypA-NS5A interaction; WT-NS5A-Rluc, CypA-6His on Ni-NTA beads
  disruption of the CypA-NS5A interaction: disrupted
Genotype 2a HCV-SGR; transient, Huh7.5 cells, 48 h posttransfection, luciferase
  EC50: 2300 ± 1200 nM
[14]
  disruption of the NS5A-D320E interaction with CypA: fully sensitive
CypA; read-out: Kd, displacement of labeled CsA from CypA, purified CypA
  Kd: 105 nM
[2]; Huh7.5 cells, 72 h, luciferase
  EC50: 2800 ± 400 nM
[3]; transient, Huh7.5 cells, 72 h posttransfection, luciferase
  EC50: 1400 ± 1100 nM
Genotype 1b HCV-SGR; EC50 relative to wild type
  Fold change, WT: 1.0
Genotype 1b HCV-SGR; transient, Huh7.5 cells, 96 h posttransfection, luciferase, read-out: Mean EC50 ± SD, HCV-SGR Genotype 1b
  EC50: 2950 ± 600 nM
Genotype 1b HCV-SGR; wild-type genotype 1b HCV-SGR, read-out: Mean EC50 ± SD, WT
  EC50: 2950 ± 600 nM
JEV
  effect against JEV replication: no effect
[4]; EC50 relative to wild type
  Fold change, D320E: 3.0
[4]; genotype 1b HCV-SGR
  EC50: 8730 ± 1100 nM
[5]; EC50 relative to wild type
  Fold change, Y321H: 1.8
[5]; genotype 1b HCV-SGR
  EC50: 5410 ± 400 nM
[6]; EC50 relative to wild type
  Fold change, R304W: 0.8
[6]; genotype 1b HCV-SGR
  EC50: 2470 ± 200 nM
[7]; EC50 relative to wild type
  Fold change, K308I: 0.9
[7]; genotype 1b HCV-SGR
  EC50: 2590 ± 200 nM
[8]; EC50 relative to wild type
  Fold change, E442G: 1.0
[8]; genotype 1b HCV-SGR
  EC50: 2990 ± 700 nM
[9]; EC50 relative to wild type
  Fold change, I133V: 0.9
[9]; genotype 1b HCV-SGR
  EC50: 2750 ± 200 nM
[10]; EC50 relative to wild type
  Fold change, L303P: 1.0
[10]; genotype 1b HCV-SGR
  EC50: 3050 ± 400 nM
Genotype 1a HCV-SGR; stable Huh7.5 cells, 48 h, luciferase, read-out: Mean EC50 ± SD, HCV-SGR Genotype 1a
  EC50: 3800 ± 1900 nM

## Nc1ccc(CNC(=O)NCC(=O)N2CCCC2c2cccc3ccccc23)cc1 (centres unmarked) [Compound C32]
[12]
  EC50: 9010 ± 2040 nM
CypA PPIase activity
  IC50: 1490 ± 450 nM

## CSc1ccccc1C1CCCN1C(=O)C(C)NC(=O)NCc1ccc(N)cc1 (centres unmarked) [Compound C33, 1‐[(4‐aminophenyl)methyl]‐3‐(1‐{2‐[2‐(methylsylfanyl)phenyl]pyrrolidin‐1‐yl}‐1‐oxopropan‐2‐yl)urea]
[12]
  EC50: 12900 ± 1200 nM
CypA PPIase activity
  IC50: 3080 ± 1170 nM

## CSCCC(NC(=O)NCc1ccc(N)cc1)C(=O)N1CCCC1c1ccccc1SC (centres unmarked) [Compound C34]
[12]
  EC50: 1630 ± 380 nM

## Nc1ccc(CNC(=O)NCC(=O)N2CCCC2c2ccccc2Br)cc1 (centres unmarked) [Compound C35]
[12]
  EC50: 4510 ± 520 nM

## COc1ccccc1C1CCCN1C(=O)CNC(=O)NCc1ccc(N)cc1 (centres unmarked) [Compound C36]
[12]
  EC50: 19700 ± 2900 nM
CypA PPIase activity
  IC50: 5030 ± 1810 nM

## COC(=O)N[C@H](C(=O)N1CC2(CC2)C[C@H]1c1nc(-c2ccc3c(c2)C(F)(F)c2cc(-c4ccc5[nH]c([C@@H]6[C@H]7CC[C@H](C7)N6C(=O)[C@@H](NC(=O)OC)C(C)C)nc5c4)ccc2-3)c[nH]1)C(C)C [LDV, ledipasvir]
[1]; genotype 1b HCV-SGR, versus wild type, data not shown
  increase in the LDV EC50, L31V and Y93H substitutions: 714 fold
Genotype 1a HCV-SGR; Hepatitis C virus, Huh7.5, read-out: EC50 used in the combination study, genotype 1a HCV-SGR
  EC50: 0.01 nM
